Laboratory results as given in the NIST ThermoML archive (doi:10.1021/acs.jced.6b00536).
Several values for one entry are separate records, joined by “and”; a condition that tells them apart may be missing. Equal values may be shown once.

Conditions: Gas, Frequency=0.05 MHz, Single path-length method

FC(F)(F)C(F)(F)F [hexafluoroethane]
Conditions | speed of sound
250.8 K, 68.9 kPa | 127.66 m/s
250.8 K, 77.3 kPa | 127.49 m/s
250.8 K, 95 kPa | 127.13 m/s
250.8 K, 108.8 kPa | 126.85 m/s
250.8 K, 128.5 kPa | 126.44 m/s
250.8 K, 149.2 kPa | 126.04 m/s
250.8 K, 169.4 kPa | 125.61 m/s
250.8 K, 177.2 kPa | 125.45 m/s
250.8 K, 195.4 kPa | 125.08 m/s
250.8 K, 211.5 kPa | 124.74 m/s
250.8 K, 225.5 kPa | 124.44 m/s
256.2 K, 70.4 kPa | 128.95 m/s
256.2 K, 78.9 kPa | 128.78 m/s
256.2 K, 97 kPa | 128.43 m/s
256.2 K, 111.1 kPa | 128.17 m/s
256.2 K, 131.3 kPa | 127.77 m/s
256.2 K, 152.5 kPa | 127.38 m/s
256.2 K, 173.1 kPa | 126.97 m/s
256.2 K, 181.1 kPa | 126.82 m/s
256.2 K, 199.7 kPa | 126.45 m/s
256.2 K, 216.2 kPa | 126.14 m/s
256.2 K, 230.6 kPa | 125.83 m/s
261.5 K, 71.8 kPa | 130.24 m/s
261.5 K, 80.5 kPa | 130.09 m/s
261.5 K, 99 kPa | 129.73 m/s
261.5 K, 113.4 kPa | 129.49 m/s
261.5 K, 134.1 kPa | 129.1 m/s
261.5 K, 155.7 kPa | 128.71 m/s
261.5 K, 176.8 kPa | 128.32 m/s
261.5 K, 185 kPa | 128.19 m/s
261.5 K, 204 kPa | 127.83 m/s
261.5 K, 221 kPa | 127.51 m/s
261.5 K, 235.7 kPa | 127.24 m/s
266.8 K, 73.3 kPa | 131.5 m/s
266.8 K, 82.1 kPa | 131.33 m/s
266.8 K, 101.1 kPa | 131.02 m/s
266.8 K, 115.7 kPa | 130.77 m/s
266.8 K, 136.8 kPa | 130.41 m/s
266.8 K, 158.9 kPa | 130.04 m/s
266.8 K, 180.5 kPa | 129.65 m/s
266.8 K, 188.9 kPa | 129.52 m/s
266.8 K, 208.3 kPa | 129.18 m/s
266.8 K, 225.6 kPa | 128.87 m/s
266.8 K, 240.8 kPa | 128.62 m/s
272.1 K, 74.7 kPa | 132.77 m/s
272.1 K, 83.7 kPa | 132.62 m/s
272.1 K, 103.1 kPa | 132.3 m/s
272.1 K, 118 kPa | 132.05 m/s
272.1 K, 139.6 kPa | 131.72 m/s
272.1 K, 162.1 kPa | 131.35 m/s
272.1 K, 184.3 kPa | 131.01 m/s
272.1 K, 192.8 kPa | 130.85 m/s
272.1 K, 212.6 kPa | 130.53 m/s
272.1 K, 230.5 kPa | 130.23 m/s
272.1 K, 246.8 kPa | 129.96 m/s
277.4 K, 76.2 kPa | 134.03 m/s
277.4 K, 85.4 kPa | 133.89 m/s
277.4 K, 105.1 kPa | 133.57 m/s
277.4 K, 120.4 kPa | 133.33 m/s
277.4 K, 142.3 kPa | 132.99 m/s
277.4 K, 165.4 kPa | 132.66 m/s
277.4 K, 188 kPa | 132.3 m/s
277.4 K, 196.7 kPa | 132.17 m/s
277.4 K, 216.9 kPa | 131.84 m/s
277.4 K, 235.2 kPa | 131.58 m/s
277.4 K, 251.8 kPa | 131.3 m/s
282.7 K, 77.6 kPa | 135.27 m/s
282.7 K, 87 kPa | 135.13 m/s
282.7 K, 107.1 kPa | 134.83 m/s
282.7 K, 122.7 kPa | 134.61 m/s
282.7 K, 145.1 kPa | 134.28 m/s
282.7 K, 168.6 kPa | 133.93 m/s
282.7 K, 191.6 kPa | 133.6 m/s
282.7 K, 200.5 kPa | 133.47 m/s
282.7 K, 221.3 kPa | 133.16 m/s
282.7 K, 239.9 kPa | 132.89 m/s
282.7 K, 256.9 kPa | 132.64 m/s
287.9 K, 79.1 kPa | 136.49 m/s
287.9 K, 88.6 kPa | 136.37 m/s
287.9 K, 109.1 kPa | 136.08 m/s
287.9 K, 125 kPa | 135.85 m/s
287.9 K, 147.9 kPa | 135.54 m/s
287.9 K, 171.8 kPa | 135.21 m/s
287.9 K, 195.4 kPa | 134.9 m/s
287.9 K, 204.4 kPa | 134.76 m/s
287.9 K, 225.6 kPa | 134.47 m/s
287.9 K, 244.5 kPa | 134.2 m/s
287.9 K, 262 kPa | 133.96 m/s
293.2 K, 80.5 kPa | 137.71 m/s
293.2 K, 85.4 kPa | 137.65 m/s
293.2 K, 90.3 kPa | 137.61 m/s
293.2 K, 111.1 kPa | 137.3 m/s and 137.31 m/s
293.2 K, 127.3 kPa | 137.08 m/s and 137.09 m/s
293.2 K, 150.6 kPa | 136.79 m/s and 136.8 m/s
293.2 K, 175 kPa | 136.48 m/s
293.2 K, 175.1 kPa | 136.49 m/s
293.2 K, 199 kPa | 136.16 m/s
293.2 K, 203.7 kPa | 136.09 m/s
293.2 K, 208.3 kPa | 136.06 m/s
293.2 K, 229.9 kPa | 135.75 m/s and 135.74 m/s
293.2 K, 249.1 kPa | 135.49 m/s
293.2 K, 249.2 kPa | 135.5 m/s
293.2 K, 265.6 kPa | 135.26 m/s
293.2 K, 267 kPa | 135.26 m/s
298.5 K, 82 kPa | 138.94 m/s
298.5 K, 91.9 kPa | 138.8 m/s
298.5 K, 113.1 kPa | 138.55 m/s
298.5 K, 129.7 kPa | 138.33 m/s
298.5 K, 153.4 kPa | 138.03 m/s
298.5 K, 178.3 kPa | 137.71 m/s
298.5 K, 202.8 kPa | 137.42 m/s
298.5 K, 212.2 kPa | 137.32 m/s
298.5 K, 234.2 kPa | 137.02 m/s
298.5 K, 253.9 kPa | 136.77 m/s
298.5 K, 272 kPa | 136.54 m/s
303.7 K, 83.4 kPa | 140.14 m/s
303.7 K, 93.5 kPa | 140.03 m/s
303.7 K, 115.2 kPa | 139.76 m/s
303.7 K, 132 kPa | 139.56 m/s
303.7 K, 156.2 kPa | 139.26 m/s
303.7 K, 181.5 kPa | 138.98 m/s
303.7 K, 206.4 kPa | 138.67 m/s
303.7 K, 216.1 kPa | 138.57 m/s
303.7 K, 238.5 kPa | 138.3 m/s
303.7 K, 258.6 kPa | 138.06 m/s
303.7 K, 277.2 kPa | 137.85 m/s
308.9 K, 84.9 kPa | 141.33 m/s
308.9 K, 95.1 kPa | 141.19 m/s
308.9 K, 117.2 kPa | 140.94 m/s
308.9 K, 134.2 kPa | 140.73 m/s
308.9 K, 158.9 kPa | 140.47 m/s
308.9 K, 184.7 kPa | 140.18 m/s
308.9 K, 210.1 kPa | 139.9 m/s
308.9 K, 219.9 kPa | 139.79 m/s
308.9 K, 242.8 kPa | 139.54 m/s
308.9 K, 263.3 kPa | 139.32 m/s
308.9 K, 282.1 kPa | 139.06 m/s
314.1 K, 86.3 kPa | 142.49 m/s
314.1 K, 96.8 kPa | 142.38 m/s
314.1 K, 119.2 kPa | 142.15 m/s
314.1 K, 136.6 kPa | 141.94 m/s
314.1 K, 161.6 kPa | 141.69 m/s
314.1 K, 187.9 kPa | 141.4 m/s
314.1 K, 213.8 kPa | 141.12 m/s
314.1 K, 223.7 kPa | 140.99 m/s
314.1 K, 247.1 kPa | 140.76 m/s
314.1 K, 267.9 kPa | 140.53 m/s
314.1 K, 287.2 kPa | 140.33 m/s
319.3 K, 87.7 kPa | 143.67 m/s
319.3 K, 98.4 kPa | 143.57 m/s
319.3 K, 121.2 kPa | 143.32 m/s
319.3 K, 138.9 kPa | 143.13 m/s
319.3 K, 164.4 kPa | 142.88 m/s
319.3 K, 191.2 kPa | 142.61 m/s
319.3 K, 217.5 kPa | 142.34 m/s
319.3 K, 227.6 kPa | 142.24 m/s
319.3 K, 251.3 kPa | 141.97 m/s
319.3 K, 272.7 kPa | 141.78 m/s
319.3 K, 292.2 kPa | 141.56 m/s
324.5 K, 89.2 kPa | 144.83 m/s
324.5 K, 100 kPa | 144.71 m/s
324.5 K, 123.2 kPa | 144.49 m/s
324.5 K, 141.2 kPa | 144.31 m/s
324.5 K, 167.2 kPa | 144.07 m/s
324.5 K, 194.4 kPa | 143.8 m/s
324.5 K, 221.2 kPa | 143.52 m/s
324.5 K, 231.5 kPa | 143.44 m/s
324.5 K, 255.7 kPa | 143.2 m/s
324.5 K, 277.3 kPa | 142.99 m/s
324.5 K, 297.1 kPa | 142.79 m/s
